According to US20250034212A1, “PEPTIDE” (PEPTIDREAM INC., priority 2021, published 2025):
Starred links: 1 amine or outer side, 2 acyl side, 3 side chain; linkers in the order of their positions; H or OH if unused. Positions of bridges follow the written chain, without caps; N, C: chain ends. Non-standard residues stand in square brackets, D forms with d. Residues, ends and D or L forms follow the SMILES beside them. Groups on a side chain read outwards from the residue. *: point of attachment. Meglumine = CN(C[C@H](O)[C@@H](O)[C@H](O)[C@H](O)CO)*; Trp(6-aza) = N[C@@H](Cc1c[nH]c2cnccc12)C(=O)O; Trp(7-aza) = N[C@@H](Cc1c[nH]c2ncccc12)C(=O)O; Piperazinyl(4-CH2COOH) = O=C(O)CN1CCN(*)CC1; 1Nal = N[C@@H](Cc1cccc2ccccc12)C(=O)O; Gly(NCH2CH2Ph) = O=C(O)CNCCc1ccccc1; 4Pal = N[C@@H](Cc1ccncc1)C(=O)O; CO = O=C([*:1])[*:2]

Target: T1, recombinant human TGF-β1 (Homo sapiens, UniProt P01137)
T1 construct: purchased R&D systems
T1 sequence (P01137 279-390 limits assumed): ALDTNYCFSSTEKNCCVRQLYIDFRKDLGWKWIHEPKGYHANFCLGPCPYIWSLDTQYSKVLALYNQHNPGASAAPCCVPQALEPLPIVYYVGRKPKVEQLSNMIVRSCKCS
Experiment: SBE reporter assay in SBE reporter-HEK293 cells, TGF-β1 stimulation
Type: cell-based
Conditions: TGF-β1 0.13 nM, 18 hours; for inhibition at 75 pM: peptide 0.075 nM; for inhibition at 0.00075 µM: peptide 0.75 nM; for inhibition at 0.0075 µM: peptide 7.5 nM; for inhibition at 0.075 µM: peptide 75.0 nM
Excerpt: The inhibitory activity of the peptide can be calculated without limitation while the maximum signal induced by TGF-β is set to 0% inhibition and no stimulation is set to 100% inhibition. When the peptide is used at an appropriate concentration, for example, at the optimal concentration, the inhibitory activity is not limited but the inhibition is 5% or more, 10% or more, 20% or more, 30% or more, 40% or more, 50% or more, 60% or more, 70% or more, 80% or more, or 90% or more.
In this Example, the TGF-β1 inhibitory activity of the peptide of the present invention consisting of the amino acid sequence set forth in SEQ ID NOs: 2-33 synthesized in Examples 1 to 5 and 7 was evaluated by an SBE reporter assay using the SBE reporter-HEK293 cell system (BP Bioscience) as follows.
SBE reporter-HEK293 cells were cultured in E-MEM (Wako) containing 10% FBS (Sigma). The cells were detached using Accutase (Innovative Cell Technologies), suspended in E-MEM containing 0.5% FBS, seeded onto a 96-well plate(s) at a concentration of 45,000 cells per well, and cultured overnight. The next day, the peptide was added and allowed to stand for 20 min, and recombinant human TGF-β1 (R&D systems) or recombinant human TGF-β2 (R&D systems) was then added at 0.13 nM and cultured for 18 hours.
Thereafter, luciferase assay ONE-Glo reagent was added to each well and the plate was shaken for 5 min. A SpectraMax Paradigm multimode microplate reader (Molecular Devices) was then used for signal detection. The obtained signals were analyzed by GraphPad Prism. The inhibitory activity of the peptide was calculated while the maximum signal induced by TGF-β was set to 0% inhibition and no stimulation was set to 100% inhibition.

| Compound | inhibition at 75 pM | inhibition at 0.00075 µM | inhibition at 0.0075 µM | inhibition at 0.075 µM |
| --- | --- | --- | --- | --- |
| CC(C)[C@@H]1NC(=O)CN(CCc2ccccc2)C(=O)[C@H](CC(=O)O)NC(=O)[C@H](CC(=O)O)NC(=O)[C@H](Cc2ccc(O)cc2)NC(=O)[C@H](C(C)C)NC(=O)[C@H](CC(N)=O)NC(=O)[C@H](C(C)C)NC(=O)[C@H](C(C)C)NC(=O)[C@H](Cc2c[nH]c3ccccc23)NC(=O)[C@H](Cc2ccccc2)NC(=O)CSC[C@@H](C(=O)NCC(N)=O)NC(=O)[C@H](C(C)C)NC(=O)[C@H](Cc2c[nH]cn2)NC(=O)[C@H](Cc2ccc(O)cc2)NC(=O)[C@H](Cc2cccc3ccccc23)NC1=O [TGFb1_003] ({CH2CO}-FWVVNVYDD[Gly(NCH2CH2Ph)]V[1Nal]YHVCG-NH2; thioether N-16) | 1.6% | 65.2% | 97.3% | 98.8% |
| CC(C)[C@@H]1NC(=O)CN(CCc2ccccc2)C(=O)[C@H](CC(=O)O)NC(=O)[C@H](CC(=O)O)NC(=O)[C@H](Cc2ccc(O)cc2)NC(=O)[C@H](C(C)C)NC(=O)[C@H](CC(N)=O)NC(=O)[C@H](C(C)C)NC(=O)[C@H](C(C)C)NC(=O)[C@H](Cc2c[nH]c3cnccc23)NC(=O)[C@H](Cc2ccccc2)NC(=O)CSC[C@@H](C(=O)NCC(N)=O)NC(=O)[C@H](C(C)C)NC(=O)[C@H](Cc2c[nH]cn2)NC(=O)[C@H](Cc2ccc(O)cc2)NC(=O)[C@H](Cc2cccc3ccccc23)NC1=O [TGFb1_004] ({CH2CO}-F[Trp(6-aza)]VVNVYDD[Gly(NCH2CH2Ph)]V[1Nal]YHVCG-NH2; thioether N-16) | 0% | 0.9% | 70.1% | 94.9% |
| CC(C)[C@@H]1NC(=O)CN(CCc2ccccc2)C(=O)[C@H](CC(=O)O)NC(=O)[C@H](CC(=O)O)NC(=O)[C@H](Cc2ccc(O)cc2)NC(=O)[C@H](C(C)C)NC(=O)[C@H](CC(N)=O)NC(=O)[C@H](C(C)C)NC(=O)[C@H](C(C)C)NC(=O)[C@H](Cc2c[nH]c3ncccc23)NC(=O)[C@H](Cc2ccccc2)NC(=O)CSC[C@@H](C(=O)NCC(N)=O)NC(=O)[C@H](C(C)C)NC(=O)[C@H](Cc2c[nH]cn2)NC(=O)[C@H](Cc2ccc(O)cc2)NC(=O)[C@H](Cc2cccc3ccccc23)NC1=O [TGFb1_005] ({CH2CO}-F[Trp(7-aza)]VVNVYDD[Gly(NCH2CH2Ph)]V[1Nal]YHVCG-NH2; thioether N-16) | 0.4% | 47% | 90.8% | 98.9% |
| CC(C)[C@@H]1NC(=O)CN(CCc2ccccc2)C(=O)[C@H](CC(=O)O)NC(=O)[C@H](CC(=O)O)NC(=O)[C@H](Cc2ccncc2)NC(=O)[C@H](C(C)C)NC(=O)[C@H](CC(N)=O)NC(=O)[C@H](CCCCN)NC(=O)[C@H](C(C)C)NC(=O)[C@H](Cc2cccc3ccccc23)NC(=O)[C@H](Cc2ccccc2)NC(=O)CSC[C@@H](C(=O)NCC(N)=O)NC(=O)[C@H](C(C)C)NC(=O)[C@H](Cc2c[nH]cn2)NC(=O)[C@H](Cc2ccc(O)cc2)NC(=O)[C@H](Cc2cccc3ccccc23)NC1=O [TGFb1_007] ({CH2CO}-F[1Nal]VKNV[4Pal]DD[Gly(NCH2CH2Ph)]V[1Nal]YHVCG-NH2; thioether N-16) | 0.1% | 37.5% | 83.5% | 96.7% |
| CC(C)[C@@H]1NC(=O)CN(CCc2ccccc2)C(=O)[C@H](CC(=O)O)NC(=O)[C@H](CC(=O)O)NC(=O)[C@H](Cc2ccncc2)NC(=O)[C@H](C(C)C)NC(=O)[C@H](CC(N)=O)NC(=O)[C@H](C(C)C)NC(=O)[C@H](C(C)C)NC(=O)[C@H](Cc2c[nH]c3ncccc23)NC(=O)[C@H](Cc2ccccc2)NC(=O)CSC[C@@H](C(=O)NCC(N)=O)NC(=O)[C@H](C(C)C)NC(=O)[C@H](Cc2c[nH]cn2)NC(=O)[C@H](Cc2ccc(O)cc2)NC(=O)[C@H](Cc2cccc3ccccc23)NC1=O [TGFb1_008] ({CH2CO}-F[Trp(7-aza)]VVNV[4Pal]DD[Gly(NCH2CH2Ph)]V[1Nal]YHVCG-NH2; thioether N-16) | 3.8% | 56.8% | 94.6% | 98.4% |

More lines, now with the values ahead:

| inhibition at 75 pM | inhibition at 0.00075 µM | inhibition at 0.0075 µM | inhibition at 0.075 µM | Compound |
| --- | --- | --- | --- | --- |
| 2.7% | 53% | 94.8% | 99.6% | CC(C)[C@@H]1NC(=O)CN(CCc2ccccc2)C(=O)[C@H](CC(=O)O)NC(=O)[C@H](CC(=O)O)NC(=O)[C@H](Cc2ccncc2)NC(=O)[C@H](C(C)C)NC(=O)[C@H](CC(N)=O)NC(=O)[C@H](C(C)C)NC(=O)[C@H](C(C)C)NC(=O)[C@H](Cc2cccc3ccccc23)NC(=O)[C@H](Cc2ccccc2)NC(=O)CSC[C@@H](C(=O)NCC(N)=O)NC(=O)[C@H](C(C)C)NC(=O)[C@H](Cc2c[nH]cn2)NC(=O)[C@H](Cc2ccncc2)NC(=O)[C@H](Cc2cccc3ccccc23)NC1=O [TGFb1_009] ({CH2CO}-F[1Nal]VVNV[4Pal]DD[Gly(NCH2CH2Ph)]V[1Nal][4Pal]HVCG-NH2; thioether N-16) |
| 2% | 63.8% | 97.9% | 99.9% | CC(C)[C@@H]1NC(=O)CN(CCc2ccccc2)C(=O)[C@H](CC(=O)O)NC(=O)[C@H](CC(=O)O)NC(=O)[C@H](Cc2ccncc2)NC(=O)[C@H](C(C)C)NC(=O)[C@H](CC(N)=O)NC(=O)[C@H](CCCCNC(=O)N2CCN(CC(=O)O)CC2)NC(=O)[C@H](C(C)C)NC(=O)[C@H](Cc2cccc3ccccc23)NC(=O)[C@H](Cc2ccccc2)NC(=O)CSC[C@@H](C(=O)NCC(N)=O)NC(=O)[C@H](C(C)C)NC(=O)[C@H](Cc2c[nH]cn2)NC(=O)[C@H](Cc2ccc(O)cc2)NC(=O)[C@H](Cc2cccc3ccccc23)NC1=O [TGFb1_010] ({CH2CO}-F[1Nal]VK([CO-Piperazinyl(4-CH2COOH)])NV[4Pal]DD[Gly(NCH2CH2Ph)]V[1Nal]YHVCG-NH2; thioether N-16) |
| 6.1% | 76.3% | 97.9% | 100% | CC(C)[C@@H]1NC(=O)CN(CCc2ccccc2)C(=O)[C@H](CCCCNC(=O)N2CCN(CC(=O)O)CC2)NC(=O)[C@H](CC(=O)O)NC(=O)[C@H](Cc2ccncc2)NC(=O)[C@H](C(C)C)NC(=O)[C@H](CC(N)=O)NC(=O)[C@H](C(C)C)NC(=O)[C@H](C(C)C)NC(=O)[C@H](Cc2cccc3ccccc23)NC(=O)[C@H](Cc2ccccc2)NC(=O)CSC[C@@H](C(=O)NCC(N)=O)NC(=O)[C@H](C(C)C)NC(=O)[C@H](Cc2c[nH]cn2)NC(=O)[C@H](Cc2ccc(O)cc2)NC(=O)[C@H](Cc2cccc3ccccc23)NC1=O [TGFb1_011] ({CH2CO}-F[1Nal]VVNV[4Pal]DK([CO-Piperazinyl(4-CH2COOH)])[Gly(NCH2CH2Ph)]V[1Nal]YHVCG-NH2; thioether N-16) |
| 0% | 64.8% | 97.2% | 98.8% | CC(C)[C@@H]1NC(=O)CN(CCc2ccccc2)C(=O)[C@H](CC(=O)O)NC(=O)[C@H](CC(=O)O)NC(=O)[C@H](Cc2ccncc2)NC(=O)[C@H](C(C)C)NC(=O)[C@H](CC(N)=O)NC(=O)[C@H](CCCCNC(=O)N(C)C[C@H](O)[C@@H](O)[C@H](O)[C@H](O)CO)NC(=O)[C@H](C(C)C)NC(=O)[C@H](Cc2cccc3ccccc23)NC(=O)[C@H](Cc2ccccc2)NC(=O)CSC[C@@H](C(=O)NCC(N)=O)NC(=O)[C@H](C(C)C)NC(=O)[C@H](Cc2c[nH]cn2)NC(=O)[C@H](Cc2ccc(O)cc2)NC(=O)[C@H](Cc2cccc3ccccc23)NC1=O [TGFb1_014] ({CH2CO}-F[1Nal]VK([CO-Meglumine])NV[4Pal]DD[Gly(NCH2CH2Ph)]V[1Nal]YHVCG-NH2; thioether N-16) |
| 0% | 76.9% | 98.7% | 98.4% | CC(C)[C@@H]1NC(=O)CN(CCc2ccccc2)C(=O)[C@H](CCCCNC(=O)N(C)C[C@H](O)[C@@H](O)[C@H](O)[C@H](O)CO)NC(=O)[C@H](CC(=O)O)NC(=O)[C@H](Cc2ccncc2)NC(=O)[C@H](C(C)C)NC(=O)[C@H](CC(N)=O)NC(=O)[C@H](C(C)C)NC(=O)[C@H](C(C)C)NC(=O)[C@H](Cc2cccc3ccccc23)NC(=O)[C@H](Cc2ccccc2)NC(=O)CSC[C@@H](C(=O)NCC(N)=O)NC(=O)[C@H](C(C)C)NC(=O)[C@H](Cc2c[nH]cn2)NC(=O)[C@H](Cc2ccc(O)cc2)NC(=O)[C@H](Cc2cccc3ccccc23)NC1=O [TGFb1_015] ({CH2CO}-F[1Nal]VVNV[4Pal]DK([CO-Meglumine])[Gly(NCH2CH2Ph)]V[1Nal]YHVCG-NH2; thioether N-16) |
